Source: patent US9095573B2, “Method of biasing implanted human neural stem cells away from differentiation into glial cells by (+)phenserine to modulate the concentration of soluble βAPP in tissue or CSF” (priority 2005, dated 2015)

Legend:
cholinesterase = conditions: Greig et al., U.S. Patent Pub. 2004/0024043 and 2004/0138282; cited from earlier work
APP mRNA = assay: Real time RT-PCR analysis of APP gene expression in cortical and hippocampal tissues; type: in vivo; conditions: both APP23 and wild-type mice
Method: Animals were subsequently divided into two groups that were either sacrificed following 14 days treatment (n=17 APP23 and n=13 wild-type, respectively) or received transplantation of HSNC into the lateral ventricle (n=13 APP23 mice and n=12 wild-type, respectively). […] Brains were removed, dissected into the hippocampus and cortex, and tissue samples were maintained on dry ice and stored at −80° C. until Western blotting and PCR experiments were performed. For the group of transplanted animals, these were transcardially perfused with PBS and 4% paraformaldehyde (pH 7.4). Brains were removed and post-fixed for 8-12 h in 4% paraformaldehyde, and cryoprotected in 20% sucrose-PBS overnight. […]
Total RNA from hippocampal and cortical tissues from each animal treated with either (+)-phenserine or saline was isolated with Trizol reagent (Invitrogen) according to the manufacturer's protocol. […] Relative quantification with Real-time PCR was determined using the MyiQ Real-Time PCR Detection System Software (Bio-Rad), and reactions were performed in a thermal iCycler using the Bio-Rad MyiQ IQ SYBR Green Supermix (Bio-Rad) according to the following conditions; denaturation of cDNA for 5 min at 94° C.; amplification (40 cycles) for 30 sec at 94° C., annealing at 56° C. for 30 sec, and extension at 72° C. for 30 sec, with a final extension at 72° C. for 5 min. […]

[1] = system: transplanted human neural stem cells (HNSCs); assay: Neuronal differentiation of transplanted HNSCs (BrdU+/β-III tubulin+ cell counts, fluorescent immunohistochemistry); type: in vivo, APP23 and wild-type mice; conditions: wild-type mice, CA1 hippocampal region only; p<0.05; 25 mg/kg
Method: (§1) HNSCs originally isolated from fetal cortical tissue were purchased from BioWhittaker (Walkersville, Md.) and the cells were expanded and passaged in a serum-free culture medium, as described in detail previously (Brannen and Sugaya, 2000). Briefly, HNSCs were cultured in 20 ml serum-free supplemented growth medium consisting of Ham's F12/DMEM (Gibco, Burlington, ON), EGF (20 ng/ml, R & D Systems), FGF (20 ng/ml, R & D Systems, Minneapolis, Minn.), B27 (1:50, Gibco), heparin (5 μg/ml, Sigma, St. Louis, Mo.) and antibiotic-antimycotic mixure (1:100, Gibco) at 37° C. in a 5% humidified incubation chamber (Brannen and Sugaya, 2000). Prior to transplantation, HNSCs were incubated with 3 μM bromo-deoxyuridine (BrdU, Sigma) for 48 hr to label cell nuclei to distinguish them from the host cells.
(§2) Animals were subsequently divided into two groups that were either sacrificed following 14 days treatment (n=17 APP23 and n=13 wild-type, respectively) or received transplantation of HSNC into the lateral ventricle (n=13 APP23 mice and n=12 wild-type, respectively). […] Brains were removed, dissected into the hippocampus and cortex, and tissue samples were maintained on dry ice and stored at −80° C. until Western blotting and PCR experiments were performed. For the group of transplanted animals, these were transcardially perfused with PBS and 4% paraformaldehyde (pH 7.4). […]

[2] = system: transplanted human neural stem cells (HNSCs); assay: Glial differentiation of transplanted HNSCs (BrdU+/GFAP+ cell counts, fluorescent immunohistochemistry); type: in vivo, APP23 and wild-type mice; conditions: hippocampus of wild-type mice; 6 weeks after HNSC transplantation; 25 mg/kg
Method: as §1, §2

Substance: (+)-phenserine
- cholinesterase activity (cholinesterase): lacks cholinesterase activity
- change in APP gene expression (APP mRNA): no significant changes
- increase in number of BrdU+/β-III tubulin+ cells [1]: 40%
- difference in number of BrdU+/GFAP+ double immuno-positive cells [2]: No significant differences
